# Reference: PubChem BioAssay (NCI)
#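 A five-concentration, 48-hour dose response in 96-well plates underlies each endpoint, interpolated linearly between surrounding concentrations. Here, GI50 denotes the concentration required for 50% inhibition of growth. The concentration for full growth arrest is given as TGI.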
# How the values were obtained:
# Experiment in all cases: NCI-60 cell line screen, 48 h
# [1] = test system: RXF 393 renal
# [2] = test system: KM12 colon
# [3] = test system: BT-549 breast
# [4] = test system: A549 NSCLC
# [5] = test system: CCRF-CEM leukemia
# [6] = test system: HCT-15 colon
# [7] = test system: SF-268 CNS
# [8] = test system: UACC-62 melanoma
# [9] = test system: HOP-62 NSCLC
# [10] = test system: OVCAR-8 ovarian
Structure (SMILES),GI50 [1],TGI [1],GI50 [2],TGI [2],GI50 [3],TGI [3],GI50 [4],TGI [4],GI50 [5],TGI [5],GI50 [6],TGI [6],GI50 [7],TGI [7],GI50 [8],TGI [8],GI50 [9],TGI [9],GI50 [10],TGI [10]
COc1cc(NC(C)CCCNC2CN3CCC2CC3)c2ncccc2c1 (stereo not given),3.44 µM,15.4 µM,14.6 µM,29.1 µM,14.8 µM,29.3 µM,12.9 µM,27.5 µM,19 µM,> 100 µM,11.5 µM,27.3 µM,12.2 µM,25.8 µM,3.2 µM,10.5 µM,11.9 µM,24.8 µM,13.7 µM,30.1 µM
COc1ccc(-c2nc(-c3nc4ccc(OC)cc4[nH]3)c3ccccn23)cc1,24.2 µM,> 100 µM,3.88 µM,15.8 µM,3.2 µM,8.86 µM,3.17 µM,46.7 µM,2.53 µM,26.8 µM,3.76 µM,90.6 µM,4.53 µM,64.3 µM,4.51 µM,22 µM,5.07 µM,> 100 µM,2.35 µM,7.6 µM
COc1ccc(-c2cc(=O)[nH]c3c(OC)c4ccccc4c(OC)c23)cc1,0.409 µM,> 19.9 µM,0.323 µM,> 100 µM,2.33 µM,> 100 µM,0.708 µM,> 100 µM,0.401 µM,> 100 µM,0.419 µM,> 100 µM,0.552 µM,> 100 µM,0.396 µM,> 100 µM,1.47 µM,> 100 µM,1.29 µM,> 100 µM
